The values below come from patent US8987313B2, “Inhibitors of cytochrome P450” (Gilead Sciences, Inc., priority 2010, dated 2015).

Where two headings read alike, the source gives them in different places. Some results are limits rather than exact numbers.

The data set has as its target CYP3A4 (Homo sapiens (Human), UniProt P08684). Kind of data set: CYP3A Inhibition Assay (human hepatic microsomes; midazolam 1'-hydroxylase and testosterone 6β-hydroxylase activities). The note with it: pooled human hepatic microsomal fraction. The procedure: Pooled (n≧15 donors) human hepatic microsomal fraction was obtained from BD-Gentest (Woburn, Mass.) who also supplied hydroxy-terfenadine, 4′-hydroxydiclofenac and NADPH regenerating system. Ritonavir was prepared from commercial Norvir® oral solution (Abbott Laboratories, Abbott Park, Ill.). Other reagents were from Sigma-Aldrich (St. Louis, Mo.) and included terfenadine, fexofenadine, BRL 15572, diclofenac and mefenamic acid.
Incubations were performed in duplicate in 50 mM potassium phosphate buffer, pH 7.4 with NADPH regenerating system used as described by the manufacturer. […] The final substrate concentrations used were equal to the apparent Km values for the activities determined under the same conditions. Inhibitors were dissolved in DMSO, and the final concentration of DMSO, from both substrate and inhibitor vehicles, was 1% (v/v). Incubations were performed at 37° C. with shaking and were initiated by addition of substrate. Aliquots were then removed at […]. Samples were quenched by treatment with an acetonitrile, formic acid, water (94.8%/0.2%/5%, v/v/v) mixture containing internal standard. Precipitated protein was removed by centrifugation at 3000 rpm for […] and aliquots of the supernatant were then subjected to LC-MS analysis.
The LC-MS system consisted of a Waters Acquity UPLC, with a binary solvent manager and a refrigerated (8° C.) sample organizer and sample manager, interfaced to a Micromass Quattro Premier tandem mass spectrometer operating in electrospray ionization mode. The column was a Waters Acquity UPLC BEH C18 2.1×50 mm, […]. Mobile phases consisted of mixtures of acetonitrile, formic acid and water, the composition for mobile phase A being 1%/0.2%/98.8% (v/v/v) and that for mobile phase B being 94.8%/0.2%/5% (v/v/v). The injection volumes were 5 μL and the flow rate was 0.8 mL/min. Concentrations of metabolites were determined by reference to standard curves generated with authentic analytes under the same conditions as the incubations.
IC50 values (the concentration of inhibitor reducing CYP3A activity by 50%) were calculated by non-linear regression using GraphPad Prism 4.0 software and a sigmoidal model.
For midazolam hydroxylase determination the final concentrations of microsomal protein and […] substrate were 0.25 mg/mL and 2.5 μM, respectively, and the LC-MS internal standard was 1α-hydroxytriazolam. […] After incubation at 37° C. for 5 minutes, metabolic reactions were terminated by treatment with quench solution containing the appropriate internal standard and were subsequently centrifuged before aliquots of the supernatant were removed and diluted with 0.1% (v/v) formic acid for LC-MS analysis.
For LC-MS analysis the column was a Phenomenex Synergi Max RP 4 μm column (50×2.0 mm) and the injection volume was 5 μL. The MS/MS ion current metabolite/internal standard peak area ratios (PAR) were measured on an Applied Biosystems SciEx API4000 triple quadrupole mass spectrometer coupled to a Leap CTC PAL autosampler with a 20 μL loop and a Shimadzu LC pump with a 25 μL mixer.

The mark [1] stands for this setting: read-out: CYP3A4 IC50 (μM) (midazolam), midazolam 1'-hydroxylase activity.
Setting [2] is: read-out: CYP3A4 IC50 (μM) (testosterone), testosterone 6β-hydroxylase activity.

Chain of CYP3A4 (P08684 whole entry): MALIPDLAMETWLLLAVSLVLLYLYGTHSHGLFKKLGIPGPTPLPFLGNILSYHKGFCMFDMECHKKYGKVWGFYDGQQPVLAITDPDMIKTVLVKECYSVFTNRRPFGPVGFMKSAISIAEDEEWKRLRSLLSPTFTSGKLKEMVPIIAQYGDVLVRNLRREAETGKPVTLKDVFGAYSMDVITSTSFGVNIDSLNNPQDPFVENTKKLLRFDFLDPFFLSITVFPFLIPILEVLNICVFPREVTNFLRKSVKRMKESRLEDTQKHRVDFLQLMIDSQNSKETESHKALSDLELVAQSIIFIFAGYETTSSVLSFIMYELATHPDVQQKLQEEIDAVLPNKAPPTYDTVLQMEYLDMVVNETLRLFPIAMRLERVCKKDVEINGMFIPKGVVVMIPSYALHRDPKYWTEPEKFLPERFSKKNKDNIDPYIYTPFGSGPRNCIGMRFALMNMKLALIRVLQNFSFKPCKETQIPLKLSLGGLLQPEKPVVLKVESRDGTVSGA

On to `CC(C)c1nc(CN(C)C(=O)N2CCN(C)C[C@H]2C(=O)N[C@H](CC[C@H](Cc2ccccc2)NC(=O)OCc2cncs2)Cc2ccccc2)cs1` [Compound 25], for which the IC50 is 0.14 µM under setting [1] and 0.3 µM under setting [2].

In the case of `CC(=O)N[C@H]1C[C@@H](C(=O)N[C@H](CC[C@H](Cc2ccccc2)NC(=O)OCc2cncs2)Cc2ccccc2)N(C(=O)N(C)Cc2csc(C(C)C)n2)C1` [Compound 36], the IC50 runs as follows: under setting [1], less than 0.1 µM; under setting [2], 0.37 µM.

As to `CC(C)c1nc(CN(C)C(=O)N2C[C@@H](N(C)C)C[C@H]2C(=O)N[C@H](CC[C@H](Cc2ccccc2)NC(=O)OCc2cncs2)Cc2ccccc2)cs1` [Compound 31], the IC50 by setting is: under setting [1], 0.15 µM; under setting [2], 0.33 µM.

Consider `CC(C)c1nc(CN(C)C(=O)N2C[C@@H](N)C[C@H]2C(=O)N[C@H](CC[C@H](Cc2ccccc2)NC(=O)OCc2cncs2)Cc2ccccc2)cs1` [Compound 29], for which the half-maximal inhibitory concentration (IC50) runs as follows: under setting [1], 0.19 µM; under setting [2], 0.31 µM.

Take `CC(C)c1nc(CN(C)C(=O)N2CCC[C@@H]2C(=O)N[C@H](CC[C@H](Cc2ccccc2)NC(=O)OCc2cncs2)Cc2ccccc2)cs1` [Compound 42]: the IC50 by setting is: under setting [1], 0.11 µM; under setting [2], 0.25 µM.

For `CC(C)c1nc(CN(C)C(=O)N2CCC[C@H]2C(=O)N[C@H](CC[C@H](Cc2ccccc2)NC(=O)OCc2cncs2)Cc2ccccc2)cs1` [Compound 39], the concentration for half-maximal inhibition (IC50) is 0.13 µM under setting [1] and 0.26 µM under setting [2].

As to `CC(C)c1nc(CN(C)C(=O)N2C[C@H](O)C[C@H]2C(=O)N[C@@H](CC[C@@H](Cc2ccccc2)NC(=O)OCc2cncs2)Cc2ccccc2)cs1` [Compound 11], the IC50 runs as follows: under setting [1], 0.12 µM; under setting [2], 0.3 µM.

Turning to `CC(C)c1nc(CN(C)C(=O)N2C[C@H](O)C[C@H]2C(=O)N[C@H](CC[C@H](Cc2ccccc2)NC(=O)OCc2cncs2)Cc2ccccc2)cs1` [Compound 5], the IC50 stood at 0.16 µM under setting [1] and 0.23 µM under setting [2].

As to `CC(C)c1nc(CN(C)C(=O)N2CS(=O)(=O)C[C@H]2C(=O)N[C@H](CC[C@H](Cc2ccccc2)NC(=O)OCc2cncs2)Cc2ccccc2)cs1` [Compound 18], the IC50 was determined as 0.16 µM under setting [1] and 0.26 µM under setting [2].

Consider `CC(C)c1nc(CN(C)C(=O)NC2(C(=O)N[C@H](CC[C@H](Cc3ccccc3)NC(=O)OCc3cncs3)Cc3ccccc3)CCN(C)CC2)cs1` [Compound 21], for which the IC50 reads like this: under setting [1], 0.19 µM; under setting [2], 0.34 µM.

Regarding `CN[C@H]1C[C@@H](C(=O)N[C@H](CC[C@H](Cc2ccccc2)NC(=O)OCc2cncs2)Cc2ccccc2)N(C(=O)N(C)Cc2csc(C(C)C)n2)C1` [Compound 30], the IC50 was determined as 0.17 µM under setting [1] and 0.36 µM under setting [2].

As to `CC(C)c1nc(CN(C)C(=O)N2Cc3nc[nH]c3C[C@H]2C(=O)N[C@H](CC[C@H](Cc2ccccc2)NC(=O)OCc2cncs2)Cc2ccccc2)cs1` [Compound 49], the IC50 runs as follows: under setting [1], 0.19 µM; under setting [2], 0.37 µM.

Regarding `CC(C)c1nc(CN(C)C(=O)N2C[C@@H](O)C[C@H]2C(=O)N[C@H](CC[C@H](Cc2ccccc2)NC(=O)OCc2cncs2)Cc2ccccc2)cs1` [Compound 8], the IC50 reads like this: under setting [1], 0.17 µM; under setting [2], 0.24 µM.
